Data taken from US9096832B2, “Differentiation of human embryonic stem cells” (LifeScan, Inc., priority 2007, dated 2015).

Test system: H9 embryonic stem cells
Experiment: Microarray analysis of definitive endoderm stage cells on […] or MEFs +/- Wnt-3a (Table VI)
Type: cell-based, human
Details: log format
[1] = DE treatment in low serum on MATRIGEL
[2] = DE treatment in low serum on MEFS

Description: Controls for each group included cells plated on [sequence]—coated dishes and cultured in MEF-conditioned medium or cells plated on MEFs and cultured in ES medium. All groups contained three biological replicates and each biological replicate was repeated on two separate gene chips.
Sample preparation, hybridization, and image analysis were performed according to the Affymetrix Human Genome U133 Plus 2.0 Array. Following normalization and a log transformation, data analysis was performed using OmniViz® software (MA) and [sequence] […] Significant differences in gene expression between the samples were evaluated using analysis of variance and an F-test with adjusted P-value (Benjamini and Hochberg correction) of less-than or equal to 0.05. Only genes with a present call in at least one group were included in the analysis.

For “Activin A: activin A (a member of the TGFβ superfamily), R&D Systems; 'w/o wnt' in Table VII = 100 ng/ml Activin A without Wnt3a”, the “mean normalized intensity: DKFZP566K1924 protein” value [1] was 2.882, the “mean normalized intensity: ESTs, Moderately similar to ALU2_HUMAN ALU SUBFAMILY SB SEQUENCE CONTAMINATION WARNING ENTRY (H. sapiens)” value [1] was 4.241 and the “mean normalized intensity: H. sapiens mRNA for B-HLH DNA binding protein.” value [1] was 5.43. The “mean normalized intensity: Homo sapiens BCL2-interacting killer (apoptosis-inducing) (BIK), mRNA.” value [1] was 4.3, the “mean normalized intensity: Homo sapiens Charot-Leyden crystal protein (CLC), mRNA.” value [1] was 3.301 and the “mean normalized intensity: Homo sapiens HES-related repressor protein 1 HERP1 mRNA, complete cds.” value [1] was 2.806. For the same substance, the “mean normalized intensity: Homo sapiens HSPC156 protein (HSPC156), mRNA.” value [1] was 0.7862, the “mean normalized intensity: Homo sapiens KIAA0469 gene product (KIAA0469), mRNA.” value [1] was 4.031 and the “mean normalized intensity: Homo sapiens PNAS-123 mRNA, complete cds” value [1] was 1.597. For the same substance, the “mean normalized intensity: Homo sapiens Wilms tumor 1 (WT1), transcript variant D, mRNA.” value [1] was 2.405, the “mean normalized intensity: Homo sapiens cDNA FLJ11398 fis, clone HEMBA1000637.” value [1] was 2.5268 and the “mean normalized intensity: Homo sapiens cDNA: FLJ22547 fis, clone HSI00356” value [1] was 4.294. The “mean normalized intensity: Homo sapiens cadherin 6, type 2, K-cadherin (fetal kidney) (CDH6), mRNA.” value [1] was 0.8248, the “mean normalized intensity: Homo sapiens chorionic somatomammotropin hormone 2 (CSH2), transcript variant 1, mRNA.” value [1] was 1.124 and the “mean normalized intensity: Homo sapiens chorionic somatomammotropin hormone 2 (CSH2), transcript variant 4, mRNA.” value [1] was 0.8122. For the same substance, the “mean normalized intensity: Homo sapiens galanin receptor 1 (GALR1), mRNA.” value [1] was 2.507, the “mean normalized intensity: Homo sapiens growth hormone 2 (GH2), transcript variant 2, mRNA.” value [1] was 0.9226 and the “mean normalized intensity: Homo sapiens hypothetical protein FLJ20075 (FLJ20075), mRNA.” value [1] was −0.3592. For the same substance, the “mean normalized intensity: Homo sapiens mRNA for SCCA2b, complete cds.” value [1] was 3.329, the “mean normalized intensity: Homo sapiens mRNA; cDNA DKFZp586P1124 (from clone DKFZp586P1124)” value [1] was 0.4856 and the “mean normalized intensity: Homo sapiens methyl-CpG binding protein MBD2 (MBD2) mRNA, complete cds.” value [1] was 0.4906. For the same substance, the “mean normalized intensity: Homo sapiens tachykinin, precursor 1 (TAC1), transcript variant beta, mRNA.” value [1] was 2.773, the “mean normalized intensity: Homo sapiens testis expressed sequence 14 (TEX14), mRNA.” value [1] was 3.512 and the “mean normalized intensity: Homo sapiens, Similar to LIM homeobox protein 8, clone IMAGE: 4839343, mRNA.” value [1] was −0.06288. For the same substance, the “mean normalized intensity: Homo sapiens, Similar to cadherin 6, type 2, K-cadherin (fetal kidney), clone MGC: 1470, mRNA, complete cds.” value [1] was 2.547, the “mean normalized intensity: Homo sapiens, Similar to hypothetical protein FLJ10058, clone MGC: 34305 IMAGE: 5167647, mRNA, complete cds.” value [1] was 1.698 and the “mean normalized intensity: Homo sapiens, Similar to hypothetical protein FLJ32001, clone MGC: 39559 IMAGE: 4828136, mRNA, complete cds.” value [1] was 0.5207. For the same substance, the “mean normalized intensity: Homo sapiens, clone IMAGE: 4067166, mRNA” value [1] was 0.1959, the “mean normalized intensity: Homo sapiens, clone IMAGE: 4828836, mRNA.” value [1] was 0.9729 and the “mean normalized intensity: Homo sapiens, serine (or cysteine) proteinase inhibitor, clade B (ovalbumin), member 3, clone MGC: 12244, mRNA, complete cds.” value [1] was 1.969. The “mean normalized intensity: Human mRNA upregulated during camptothecin-induced apoptosis of U937 cells.” value [1] was 0.4945, the “mean normalized intensity: Human platelet-derived growth factor alpha-receptor (PDGFRA) mRNA, exons 13-16” value [1] was 2.445 and the “mean normalized intensity: KIAA1151 protein” value [1] was 0.6425. The “mean normalized intensity: caldesmon 1” value [1] was 7.092, the “mean normalized intensity: nuclear receptor subfamily 1, group I, member 3” value [1] was 1.779 and the “mean normalized intensity: ESTs” value (DE treatment in low serum on MATRIGEL, gene line r2006) was 1.5857. For the same substance, the “mean normalized intensity: ESTs” value (DE treatment in low serum on MATRIGEL, gene line r2025) was 1.531, the “mean normalized intensity: ESTs” value (DE treatment in low serum on MATRIGEL, gene line r2032) was 0.1336 and the “mean normalized intensity: paternally expressed 3” value (DE treatment in low serum on MATRIGEL, gene line r2033) was 2.876. The “mean normalized intensity: ESTs” value (DE treatment in low serum on MATRIGEL, gene line r2038) was 3.262, the “mean normalized intensity: paternally expressed 3” value (DE treatment in low serum on MATRIGEL, gene line r2093) was 2.874 and the “mean normalized intensity: ESTs” value (DE treatment in low serum on MATRIGEL, gene line r2134) was −1.3795. For the same substance, the “mean normalized intensity: ESTs” value (DE treatment in low serum on MATRIGEL, gene line r2148) was 4.454, the “mean normalized intensity: DKFZP566K1924 protein” value [2] was 1.391 and the “mean normalized intensity: ESTs, Moderately similar to ALU2_HUMAN ALU SUBFAMILY SB SEQUENCE CONTAMINATION WARNING ENTRY (H. sapiens)” value [2] was 3.874. The “mean normalized intensity: H. sapiens mRNA for B-HLH DNA binding protein.” value [2] was 3.451, the “mean normalized intensity: Homo sapiens BCL2-interacting killer (apoptosis-inducing) (BIK), mRNA.” value [2] was 3.562 and the “mean normalized intensity: Homo sapiens Charot-Leyden crystal protein (CLC), mRNA.” value [2] was 2.1096. For the same substance, the “mean normalized intensity: Homo sapiens HES-related repressor protein 1 HERP1 mRNA, complete cds.” value [2] was 2.406, the “mean normalized intensity: Homo sapiens HSPC156 protein (HSPC156), mRNA.” value [2] was 1.296 and the “mean normalized intensity: Homo sapiens KIAA0469 gene product (KIAA0469), mRNA.” value [2] was 2.565. The “mean normalized intensity: Homo sapiens PNAS-123 mRNA, complete cds” value [2] was 1.847, the “mean normalized intensity: Homo sapiens Wilms tumor 1 (WT1), transcript variant D, mRNA.” value [2] was −2.435 and the “mean normalized intensity: Homo sapiens cDNA FLJ11398 fis, clone HEMBA1000637.” value [2] was 1.849. For the same substance, the “mean normalized intensity: Homo sapiens cDNA: FLJ22547 fis, clone HSI00356” value [2] was 2.095, the “mean normalized intensity: Homo sapiens cadherin 6, type 2, K-cadherin (fetal kidney) (CDH6), mRNA.” value [2] was −0.8763 and the “mean normalized intensity: Homo sapiens chorionic somatomammotropin hormone 2 (CSH2), transcript variant 1, mRNA.” value [2] was 2.616. The “mean normalized intensity: Homo sapiens chorionic somatomammotropin hormone 2 (CSH2), transcript variant 4, mRNA.” value [2] was 2.218, the “mean normalized intensity: Homo sapiens galanin receptor 1 (GALR1), mRNA.” value [2] was −0.338 and the “mean normalized intensity: Homo sapiens growth hormone 2 (GH2), transcript variant 2, mRNA.” value [2] was 1.4679. The “mean normalized intensity: Homo sapiens hypothetical protein FLJ20075 (FLJ20075), mRNA.” value [2] was −0.06528, the “mean normalized intensity: Homo sapiens mRNA for SCCA2b, complete cds.” value [2] was 0.568 and the “mean normalized intensity: Homo sapiens mRNA; cDNA DKFZp586P1124 (from clone DKFZp586P1124)” value [2] was −3.094. The “mean normalized intensity: Homo sapiens methyl-CpG binding protein MBD2 (MBD2) mRNA, complete cds.” value [2] was −1.702, the “mean normalized intensity: Homo sapiens tachykinin, precursor 1 (TAC1), transcript variant beta, mRNA.” value [2] was 1.483 and the “mean normalized intensity: Homo sapiens testis expressed sequence 14 (TEX14), mRNA.” value [2] was −1.3824. The “mean normalized intensity: Homo sapiens, Similar to LIM homeobox protein 8, clone IMAGE: 4839343, mRNA.” value [2] was −1.11, the “mean normalized intensity: Homo sapiens, Similar to cadherin 6, type 2, K-cadherin (fetal kidney), clone MGC: 1470, mRNA, complete cds.” value [2] was 2.134 and the “mean normalized intensity: Homo sapiens, Similar to hypothetical protein FLJ10058, clone MGC: 34305 IMAGE: 5167647, mRNA, complete cds.” value [2] was 0.2156. For the same substance, the “mean normalized intensity: Homo sapiens, Similar to hypothetical protein FLJ32001, clone MGC: 39559 IMAGE: 4828136, mRNA, complete cds.” value [2] was 1.269, the “mean normalized intensity: Homo sapiens, clone IMAGE: 4067166, mRNA” value [2] was 0.277 and the “mean normalized intensity: Homo sapiens, clone IMAGE: 4828836, mRNA.” value [2] was −1.484. The “mean normalized intensity: Homo sapiens, serine (or cysteine) proteinase inhibitor, clade B (ovalbumin), member 3, clone MGC: 12244, mRNA, complete cds.” value [2] was −1.566, the “mean normalized intensity: Human mRNA upregulated during camptothecin-induced apoptosis of U937 cells.” value [2] was −0.1892 and the “mean normalized intensity: Human platelet-derived growth factor alpha-receptor (PDGFRA) mRNA, exons 13-16” value [2] was 2.905. For the same substance, the “mean normalized intensity: KIAA1151 protein” value [2] was 1.009, the “mean normalized intensity: caldesmon 1” value [2] was 5.634 and the “mean normalized intensity: nuclear receptor subfamily 1, group I, member 3” value [2] was −0.1968. The “mean normalized intensity: ESTs” value (DE treatment in low serum on MEFS, gene line r2006) was −1.3, the “mean normalized intensity: ESTs” value (DE treatment in low serum on MEFS, gene line r2025) was 1.373 and the “mean normalized intensity: ESTs” value (DE treatment in low serum on MEFS, gene line r2032) was −1.566. For the same substance, the “mean normalized intensity: paternally expressed 3” value (DE treatment in low serum on MEFS, gene line r2033) was −0.0118, the “mean normalized intensity: ESTs” value (DE treatment in low serum on MEFS, gene line r2038) was 1.5682 and the “mean normalized intensity: paternally expressed 3” value (DE treatment in low serum on MEFS, gene line r2093) was −3.492.
